According to PubChem BioAssay (NCI):
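Five concentrations, 48 hours, 96-well plates. At the GI50, growth is halved. TGI: concentration producing complete growth inhibition.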

Legend:
Assay in all cases: NCI anticancer screen, dose series, 48 h
786-0 renal = tested on: 786-0 renal
A498 renal = tested on: A498 renal
A549 NSCLC = tested on: A549 NSCLC
ACHN renal = tested on: ACHN renal
BT-549 breast = tested on: BT-549 breast
CAKI-1 renal = tested on: CAKI-1 renal
COLO 205 colon = tested on: COLO 205 colon
DU-145 prostate = tested on: DU-145 prostate
EKVX NSCLC = tested on: EKVX NSCLC
HCC-2998 colon = tested on: HCC-2998 colon
HCT-116 colon = tested on: HCT-116 colon
HCT-15 colon = tested on: HCT-15 colon
HOP-62 NSCLC = tested on: HOP-62 NSCLC
HOP-92 NSCLC = tested on: HOP-92 NSCLC
HS 578T breast = tested on: HS 578T breast
HT29 colon = tested on: HT29 colon
IGROV1 ovarian = tested on: IGROV1 ovarian
KM12 colon = tested on: KM12 colon
LOX IMVI melanoma = tested on: LOX IMVI melanoma
M14 melanoma = tested on: M14 melanoma
MALME-3M melanoma = tested on: MALME-3M melanoma
MCF7 breast = tested on: MCF7 breast
MDA-MB-231 breast = tested on: MDA-MB-231 breast
MDA-MB-435 = tested on: MDA-MB-435
NCI-H226 lung = tested on: NCI-H226 lung
NCI-H23 lung = tested on: NCI-H23 lung
NCI-H460 lung = tested on: NCI-H460 lung
NCI-H522 lung = tested on: NCI-H522 lung
OVCAR-3 ovarian = tested on: OVCAR-3 ovarian
OVCAR-4 ovarian = tested on: OVCAR-4 ovarian
OVCAR-5 ovarian = tested on: OVCAR-5 ovarian
OVCAR-8 ovarian = tested on: OVCAR-8 ovarian
PC-3 prostate = tested on: PC-3 prostate
RXF 393 renal = tested on: RXF 393 renal
SF-268 CNS = tested on: SF-268 CNS
SF-295 CNS = tested on: SF-295 CNS
SF-539 CNS = tested on: SF-539 CNS
SK-MEL-2 melanoma = tested on: SK-MEL-2 melanoma
SK-MEL-28 melanoma = tested on: SK-MEL-28 melanoma
SK-MEL-5 melanoma = tested on: SK-MEL-5 melanoma
SK-OV-3 ovarian = tested on: SK-OV-3 ovarian
SN12C renal = tested on: SN12C renal
SNB-19 CNS = tested on: SNB-19 CNS
SNB-75 CNS = tested on: SNB-75 CNS
SW-620 colon = tested on: SW-620 colon
T-47D breast = tested on: T-47D breast
TK-10 renal = tested on: TK-10 renal
UACC-257 melanoma = tested on: UACC-257 melanoma
UACC-62 melanoma = tested on: UACC-62 melanoma
UO-31 renal = tested on: UO-31 renal

Which GI50 (786-0 renal) does the source give for `C=C(C)[C@@H]1CC[C@]2(C(=O)N3CCN(C)CC3)CC[C@]3(C)[C@H](CC[C@@H]4[C@@]5(C)CC[C@H](O)C(C)(C)[C@@H]5CC[C@]43C)[C@@H]12` here?
The GI50 was 1490 nM.

What about the TGI (786-0 renal) of the same compound?
Its TGI is 3170 nM.

And the GI50 (A498 renal)?
Its GI50 is 1500 nM.

What about the TGI (A498 renal) of the same compound?
The TGI was 2900 nM.

And the GI50 (A549 NSCLC)?
Its GI50 is 1880 nM.

And the TGI (A549 NSCLC)?
Its TGI is 3880 nM.

And the GI50 (ACHN renal)?
Its GI50 is 1690 nM.

And the TGI (ACHN renal)?
Its TGI is 3120 nM.

What about the GI50 (BT-549 breast) of the same compound?
The GI50 was 1740 nM.

And the TGI (BT-549 breast)?
Its TGI is 3490 nM.

What about the GI50 (CAKI-1 renal) of the same compound?
The GI50 was 1590 nM.

What about the TGI (CAKI-1 renal) of the same compound?
The TGI was 3050 nM.

What about the GI50 (COLO 205 colon) of the same compound?
The GI50 was 1890 nM.

And the TGI (COLO 205 colon)?
The TGI was 4260 nM.

What about the GI50 (DU-145 prostate) of the same compound?
The GI50 was 1850 nM.

What about the TGI (DU-145 prostate) of the same compound?
The TGI was 3400 nM.

What about the GI50 (EKVX NSCLC) of the same compound?
Its GI50 is 1920 nM.

What about the TGI (EKVX NSCLC) of the same compound?
Its TGI is 4120 nM.

And the GI50 (HCC-2998 colon)?
The GI50 was 1910 nM.

And the TGI (HCC-2998 colon)?
The TGI was 3590 nM.

What about the GI50 (HCT-116 colon) of the same compound?
Its GI50 is 1470 nM.

And the TGI (HCT-116 colon)?
Its TGI is 3510 nM.

And the GI50 (HCT-15 colon)?
Its GI50 is 1690 nM.

What about the TGI (HCT-15 colon) of the same compound?
Its TGI is 3860 nM.

What about the GI50 (HOP-62 NSCLC) of the same compound?
The GI50 was 1910 nM.

What about the TGI (HOP-62 NSCLC) of the same compound?
Its TGI is 3750 nM.

What about the GI50 (HOP-92 NSCLC) of the same compound?
The GI50 was 1690 nM.

And the TGI (HOP-92 NSCLC)?
The TGI was 3420 nM.

What about the GI50 (HS 578T breast) of the same compound?
The GI50 was 1940 nM.

And the TGI (HS 578T breast)?
The TGI was 4680 nM.

What about the GI50 (HT29 colon) of the same compound?
Its GI50 is 1410 nM.

What about the TGI (HT29 colon) of the same compound?
Its TGI is 3090 nM.

What about the GI50 (IGROV1 ovarian) of the same compound?
The GI50 was 1930 nM.

And the TGI (IGROV1 ovarian)?
Its TGI is 3710 nM.

And the GI50 (KM12 colon)?
Its GI50 is 2090 nM.

What about the TGI (KM12 colon) of the same compound?
Its TGI is 4030 nM.

What about the GI50 (LOX IMVI melanoma) of the same compound?
The GI50 was 1870 nM.

What about the TGI (LOX IMVI melanoma) of the same compound?
Its TGI is 3740 nM.

What about the GI50 (M14 melanoma) of the same compound?
Its GI50 is 1890 nM.

What about the TGI (M14 melanoma) of the same compound?
Its TGI is 3760 nM.

What about the GI50 (MALME-3M melanoma) of the same compound?
The GI50 was 1920 nM.

What about the TGI (MALME-3M melanoma) of the same compound?
Its TGI is 3830 nM.

And the GI50 (MCF7 breast)?
Its GI50 is 1790 nM.

What about the TGI (MCF7 breast) of the same compound?
The TGI was 4220 nM.

What about the GI50 (MDA-MB-231 breast) of the same compound?
Its GI50 is 1880 nM.

What about the TGI (MDA-MB-231 breast) of the same compound?
Its TGI is 3570 nM.

And the GI50 (MDA-MB-435)?
Its GI50 is 1800 nM.

What about the TGI (MDA-MB-435) of the same compound?
Its TGI is 3500 nM.

What about the GI50 (NCI-H226 lung) of the same compound?
The GI50 was 2070 nM.

And the TGI (NCI-H226 lung)?
Its TGI is 5000 nM.

And the GI50 (NCI-H23 lung)?
The GI50 was 1920 nM.

What about the TGI (NCI-H23 lung) of the same compound?
Its TGI is 3820 nM.

And the GI50 (NCI-H460 lung)?
Its GI50 is 2020 nM.

And the TGI (NCI-H460 lung)?
The TGI was 4040 nM.

And the GI50 (NCI-H522 lung)?
The GI50 was 1920 nM.

What about the TGI (NCI-H522 lung) of the same compound?
Its TGI is 3800 nM.

What about the GI50 (OVCAR-3 ovarian) of the same compound?
The GI50 was 1900 nM.

And the TGI (OVCAR-3 ovarian)?
The TGI was 3490 nM.

And the GI50 (OVCAR-4 ovarian)?
Its GI50 is 1770 nM.

What about the TGI (OVCAR-4 ovarian) of the same compound?
The TGI was 3370 nM.

And the GI50 (OVCAR-5 ovarian)?
The GI50 was 1750 nM.

What about the TGI (OVCAR-5 ovarian) of the same compound?
The TGI was 3280 nM.

And the GI50 (OVCAR-8 ovarian)?
Its GI50 is 1690 nM.

And the TGI (OVCAR-8 ovarian)?
The TGI was 4560 nM.

And the GI50 (PC-3 prostate)?
Its GI50 is 1740 nM.

What about the TGI (PC-3 prostate) of the same compound?
The TGI was 3480 nM.

And the GI50 (RXF 393 renal)?
The GI50 was 1530 nM.

What about the TGI (RXF 393 renal) of the same compound?
Its TGI is 3210 nM.

What about the GI50 (SF-268 CNS) of the same compound?
Its GI50 is 2020 nM.

And the TGI (SF-268 CNS)?
Its TGI is 4420 nM.

What about the GI50 (SF-295 CNS) of the same compound?
Its GI50 is 1680 nM.

And the TGI (SF-295 CNS)?
Its TGI is 3270 nM.

And the GI50 (SF-539 CNS)?
The GI50 was 1690 nM.

What about the TGI (SF-539 CNS) of the same compound?
The TGI was 3120 nM.

And the GI50 (SK-MEL-2 melanoma)?
Its GI50 is 1640 nM.

What about the TGI (SK-MEL-2 melanoma) of the same compound?
Its TGI is 3140 nM.

And the GI50 (SK-MEL-28 melanoma)?
The GI50 was 1800 nM.

And the TGI (SK-MEL-28 melanoma)?
Its TGI is 3480 nM.

What about the GI50 (SK-MEL-5 melanoma) of the same compound?
The GI50 was 1720 nM.

What about the TGI (SK-MEL-5 melanoma) of the same compound?
Its TGI is 3150 nM.

What about the GI50 (SK-OV-3 ovarian) of the same compound?
Its GI50 is 1840 nM.

What about the TGI (SK-OV-3 ovarian) of the same compound?
Its TGI is 3350 nM.

And the GI50 (SN12C renal)?
The GI50 was 1720 nM.

What about the TGI (SN12C renal) of the same compound?
The TGI was 3460 nM.

And the GI50 (SNB-19 CNS)?
Its GI50 is 1830 nM.

What about the TGI (SNB-19 CNS) of the same compound?
The TGI was 3920 nM.

What about the GI50 (SNB-75 CNS) of the same compound?
Its GI50 is 1640 nM.

And the TGI (SNB-75 CNS)?
The TGI was 3270 nM.

What about the GI50 (SW-620 colon) of the same compound?
Its GI50 is 1740 nM.

What about the TGI (SW-620 colon) of the same compound?
Its TGI is 3700 nM.

And the GI50 (T-47D breast)?
The GI50 was 1480 nM.

And the TGI (T-47D breast)?
The TGI was 3750 nM.

What about the GI50 (TK-10 renal) of the same compound?
The GI50 was 1790 nM.

And the TGI (TK-10 renal)?
Its TGI is 3380 nM.

What about the GI50 (UACC-257 melanoma) of the same compound?
Its GI50 is 1810 nM.

And the TGI (UACC-257 melanoma)?
The TGI was 3570 nM.

And the GI50 (UACC-62 melanoma)?
Its GI50 is 1720 nM.

And the TGI (UACC-62 melanoma)?
The TGI was 3300 nM.

What about the GI50 (UO-31 renal) of the same compound?
Its GI50 is 1670 nM.

What about the TGI (UO-31 renal) of the same compound?
The TGI was 3240 nM.
